What was measured:
Type in all cases: in vivo
zea mays [1] = assay: Post-emergence herbicidal activity, glasshouse pot test; parameters: key: 0 = no damage to plant, 5 = total damage to plant; settings: Application post-emergence, rate 1000 g/ha, evaluated after 13 days
Method in brief: (§1)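 Test solution: technical active ingredient in acetone/water (50:50) containing 0.5% Tween 20, applied as an aqueous spray to 8-day-old plants. Evaluation at 13 days, 0–5 damage scale.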

Echinochloa crus-galli [2] = assay: as above; parameters: key: 0 = no damage to plant, 5 = total damage to plant; settings: Application post-emergence, rate 1000 g/ha, evaluated after 13 days
Method in brief: as §1

Amaranthus retroflexus [3] = assay: as above; parameters: key: 0 = no damage to plant, 5 = total damage to plant; settings: Application post-emergence, rate 1000 g/ha, evaluated after 13 days
Method in brief: as §1

Alopecurus myosuroides [4] = assay: as above; parameters: key: 0 = no damage to plant, 5 = total damage to plant; settings: Application post-emergence, rate 1000 g/ha, evaluated after 13 days
Method in brief: as §1

Setaria faberi [5] = assay: as above; parameters: key: 0 = no damage to plant, 5 = total damage to plant; settings: Application post-emergence, rate 1000 g/ha, evaluated after 13 days
Method in brief: as §1

Abutilon theophrasti [6] = assay: as above; parameters: key: 0 = no damage to plant, 5 = total damage to plant; settings: Application post-emergence, rate 1000 g/ha, evaluated after 13 days
Method in brief: as §1

zea mays [7] = assay: Pre-emergence herbicidal activity, glasshouse pot test; settings: pre-emergence spray, rate 1000 g/ha, evaluated after 13 days, scale 0-5
Method in brief: (§2)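 Damage was rated at 13 days from 0 (none) to 5 (total), in a glasshouse kept at 24/16 °C, 14 h light and 65% humidity with watering twice daily. The aqueous spray of active ingredient in 50:50 acetone/water plus 0.5% Tween 20 was applied to soil one day post-sowing, before emergence.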

Echinochloa crus-galli [8] = assay: as above; settings: pre-emergence spray, rate 1000 g/ha, evaluated after 13 days, scale 0-5
Method in brief: as §2

Amaranthus retroflexus [9] = assay: as above; settings: pre-emergence spray, rate 1000 g/ha, evaluated after 13 days, scale 0-5
Method in brief: as §2

Alopecurus myosuroides [10] = assay: as above; settings: pre-emergence spray, rate 1000 g/ha, evaluated after 13 days, scale 0-5
Method in brief: as §2

Setaria faberi [11] = assay: as above; settings: pre-emergence spray, rate 1000 g/ha, evaluated after 13 days, scale 0-5
Method in brief: as §2

Abutilon theophrasti [12] = assay: as above; settings: pre-emergence spray, rate 1000 g/ha, evaluated after 13 days, scale 0-5
Method in brief: as §2

| Structure (SMILES) | ZEAMX herbicidal damage score (zea mays [1]) | ECHCG herbicidal damage score (Echinochloa crus-galli [2]) | AMARE herbicidal damage score (Amaranthus retroflexus [3]) | ALOMY herbicidal damage score (Alopecurus myosuroides [4]) | SETFA herbicidal damage score (Setaria faberi [5]) | ABUTH herbicidal damage score (Abutilon theophrasti [6]) | ZEAMX damage score, application pre-emergence (zea mays [7]) | ECHCG damage score, application pre-emergence (Echinochloa crus-galli [8]) | AMARE damage score, application pre-emergence (Amaranthus retroflexus [9]) | ALOMY damage score, application pre-emergence (Alopecurus myosuroides [10]) | SETFA damage score, application pre-emergence (Setaria faberi [11]) | ABUTH damage score, application pre-emergence (Abutilon theophrasti [12]) |
| --- | --- | --- | --- | --- | --- | --- | --- | --- | --- | --- | --- | --- |
| CC1=C(Br)C(=O)N(c2cc(C(F)(F)F)ccn2)C1O (stereo not drawn) [AG1] | 2 | 5 | 5 | 4 | 5 | 5 | 0 | 2 | 5 | 2 | 3 | 5 |
| COC1=C(C)C(O)N(c2cc(C(F)(F)F)ccn2)C1=O (stereo not drawn) [AI1, 2-hydroxy-4-methoxy-3-methyl-1-[4-(trifluoromethyl)-2-pyridyl]-2H-pyrrol-5-one] | 4 | 5 | 5 | 4 | 5 | 5 | 3 | 4 | 5 | 4 | 5 | 5 |
| COC1=C(C)C(O)N(c2cc(C(F)(F)F)c(Br)cn2)C1=O (stereo not drawn) [AI2] | 4 | 5 | 5 | 5 | 5 | 5 | 2 | 4 | 5 | 4 | 1 | 3 |
| COC1=C(C)C(O)N(c2cc(OC(F)(F)F)ccn2)C1=O (stereo not drawn) [AI3] | 1 | 5 | 4 | 5 | 5 | 4 | 2 | 4 | 5 | 3 | 4 | 4 |
| COC1=C(C)C(O)N(c2cc(C(C)(C)C)ccn2)C1=O (stereo not drawn) [AI4] | 3 | 5 | 5 | 5 | 5 | 5 | 1 | 4 | 5 | 3 | 5 | 4 |
| CCOC1=C(C)C(O)N(c2cc(C(F)(F)F)ccn2)C1=O (stereo not drawn) [AI5, 4-ethoxy-2-hydroxy-3-methyl-1-[4-(trifluoromethyl)-2-pyridyl]-2H-pyrrol-5-one] | 3 | 5 | 5 | 4 | 4 | 5 | 3 | 4 | 5 | 4 | 5 | 4 |
| COC1=C(C)C(O)N(c2cc(C(F)(F)F)c(C(=O)NC(C)(C)C)cn2)C1=O (stereo not drawn) [AI6] | 5 | 5 | 5 | 5 | 5 | 5 | 4 | 5 | 5 | 4 | 5 | 5 |
| COC1=C(C)C(O)N(c2cc3c(cn2)CCCC3)C1=O (stereo not drawn) [AI7] | 1 | 5 | 3 | 3 | 5 | 4 | 0 | 5 | 3 | 2 | 5 | 1 |
